Patent US20230089867A1, “CYCLIC PENTAMER COMPOUNDS AS PROPROTEIN CONVERTASE SUBTILISIN/KEXIN TYPE 9 (PCSK9) INHIBITORS FOR THE TREATMENT OF METABOLIC DISORDER” (Novartis AG, priority 2018, published 2023)

Molecular target: human PCSK9 (Homo sapiens, UniProt Q8NBP7)
Assay: PCSK9 ligand binding TR-FRET assay (interference with binding of human PCSK9 to human LDLR)
Conditions: for Max % inhibition: PCSK9 FRET assay, efficacy (Amax), 100% = 1 uM unlabeled human PCSK9, 0% = DMSO; for IC50: TR-FRET, human PCSK9 Alexa Fluor 647 / human LDLR extracellular domain-Europium Kryptate, read-out: PCSK9 FRET Assay IC50
Procedure, shortened: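 Threefold compound dilutions were pre-incubated 30 min with PCSK9, after which 4 nM Europium Kryptate-tagged human LDLR ectodomain was added for a further 2 h.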

Sequence of human PCSK9 (Q8NBP7 153-692): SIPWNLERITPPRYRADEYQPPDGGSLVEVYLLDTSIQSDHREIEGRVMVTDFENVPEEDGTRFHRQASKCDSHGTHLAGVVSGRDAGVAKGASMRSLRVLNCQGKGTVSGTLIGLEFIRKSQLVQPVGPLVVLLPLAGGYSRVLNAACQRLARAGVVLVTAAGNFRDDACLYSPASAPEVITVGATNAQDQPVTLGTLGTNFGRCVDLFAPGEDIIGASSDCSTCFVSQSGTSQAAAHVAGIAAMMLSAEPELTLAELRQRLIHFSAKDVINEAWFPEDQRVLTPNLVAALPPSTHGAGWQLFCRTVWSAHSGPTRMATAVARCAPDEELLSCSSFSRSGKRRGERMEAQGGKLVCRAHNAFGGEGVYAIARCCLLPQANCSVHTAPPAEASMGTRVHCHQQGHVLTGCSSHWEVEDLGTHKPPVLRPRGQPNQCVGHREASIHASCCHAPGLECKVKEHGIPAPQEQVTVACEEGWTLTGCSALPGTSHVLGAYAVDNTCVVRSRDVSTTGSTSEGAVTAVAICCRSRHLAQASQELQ
Sequence of human PCSK9 (Q8NBP7 31-152 partner limits assumed): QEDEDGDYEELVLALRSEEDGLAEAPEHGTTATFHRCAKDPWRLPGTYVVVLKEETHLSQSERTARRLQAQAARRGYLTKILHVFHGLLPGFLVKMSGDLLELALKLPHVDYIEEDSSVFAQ

SMILES | Max % inhibition [%] | IC50 [nM]
COC[C@@H]1NC(=O)[C@H](C)N(Cc2ccc(Cl)cc2Oc2ccc(-c3cnc(CN(C)C)n3C)cc2)C(=O)C[C@H]2C(=O)N(C)[C@@H](CNC(=O)C[C@H](Cc3ccc(Cl)cc3)N(C)C1=O)C(=O)N2C [Compound 262, (1S,6S,9S,12S,16S)-13-(4-chloro-2-(4-(2-((dimethylamino)methyl)-1-methyl-1H-imidazol-5-yl)phenoxy)benzyl)-6-(4-chlorobenzyl)-9-(methoxymethyl)-7,12,17,19-tetramethyl-3,7,10,13,17,19-hexaazabicyclo[14.2.2]icosane-4,8,11,14,18,20-hexaone] | 97.63 | 205
CCC[C@@H]1CC(=O)N(Cc2ccc(Cl)cc2Oc2ccc(-c3cnc(CN(C)C)n3C)cc2)[C@@H](C)C(=O)N[C@@H](COC)C(=O)N(C)[C@@H](Cc2ccc(Cl)cc2)CC(=O)N[C@H]2CCCC[C@@H]2N(C)C1=O [Compound 263, (4S,7S,10S,14R,16aS,20aS)-11-(4-chloro-2-(4-(2-((dimethylamino)methyl)-1-methyl-1H-imidazol-5-yl)phenoxy)benzyl)-4-(4-chlorobenzyl)-7-(methoxymethyl)-5,10,16-trimethyl-14-propylhexadecahydrobenzo[l][1,4,7,11,14]pentaazacyclooctadecine-2,6,9,12,15(3H)-pentaone] | 76.79 | 5.3
COC[C@@H]1NC(=O)[C@H](C)N(Cc2ccc(Cl)cc2Oc2ccc(-n3cnc(CN4CCOCC4)c3C)cc2)C(=O)C[C@@H](Cc2ccccc2)C(=O)N(C)[C@H]2CCCC[C@@H]2NC(=O)C[C@H](Cc2ccc(Cl)cc2)N(C)C1=O [Compound 266, (4S,7S,10S,14R,16aS,20aS)-14-benzyl-11-(4-chloro-2-(4-(5-methyl-4-(morpholinomethyl)-1H-imidazol-1-yl)phenoxy)benzyl)-4-(4-chlorobenzyl)-7-(methoxymethyl)-5,10,16-trimethylhexadecahydrobenzo[l][1,4,7,11,14]pentaazacyclooctadecine-2,6,9,12,15(3H)-pentaone] | 106.30 | 1.9
CCOC(=O)CCCN(CCCC(=O)OCC)CCC[C@H]1C(=O)N[C@@H](COC)C(=O)N(C)[C@@H](Cc2ccc(Cl)cc2)CC(=O)N[C@H]2CCCC[C@@H]2N(C)C(=O)[C@H](Cc2ccccc2)CC(=O)N1Cc1ccc(Cl)cc1Oc1ccc(-c2cnc(CN(C)C)n2C)cc1 [Compound 267, diethyl 4,4′-((3-((4S,7S,10S,14R,16aS,20aS)-14-benzyl-11-(4-chloro-2-(4-(2-((dimethylamino)methyl)-1-methyl-1H-imidazol-5-yl)phenoxy)benzyl)-4-(4-chlorobenzyl)-7-(methoxymethyl)-5,16-dimethyl-2,6,9,12,15-pentaoxodocosahydrobenzo[l][1,4,7,11,14]pentaazacyclooctadecin-10-yl)propyl)azanediyl)dibutanoate] | 93.76 | 7.1
CC[C@H](c1ncc(-c2ccc(Oc3cc(Cl)ccc3CN3C(=O)C[C@@H](Cc4ccccc4)C(=O)N(C)[C@H]4CCCC[C@@H]4NC(=O)C[C@H](Cc4ccc(Cl)cc4)N(C)C(=O)[C@H](COC)NC(=O)[C@@H]3C)cc2)n1C)N(C)C [Compound 268, (4S,7S,10S,14R,16aS,20aS)-14-benzyl-11-(4-chloro-2-(4-(2-((R)-1-(dimethylamino)propyl)-1-methyl-1H-imidazol-5-yl)phenoxy)benzyl)-4-(4-chlorobenzyl)-7-(methoxymethyl)-5,10,16-trimethylhexadecahydrobenzo[l][1,4,7,11,14]pentaazacyclooctadecine-2,6,9,12,15(3H)-pentaone] | 68.37 | 9.4
COC[C@@H]1NC(=O)[C@H](CC(=O)N(C)C)N(Cc2ccc(Cl)cc2Oc2ccc(-c3cnc(CN(C)C)n3C)cc2)C(=O)C[C@@H](Cc2ccccc2)C(=O)N(C)[C@H]2CCCC[C@@H]2NC(=O)C[C@H](Cc2ccc(Cl)cc2)N(C)C1=O [Compound 269, 2-((4S,7S,10S,14R,16aS,20aS)-14-benzyl-11-(4-chloro-2-(4-(2-((dimethylamino)methyl)-1-methyl-1H-imidazol-5-yl)phenoxy)benzyl)-4-(4-chlorobenzyl)-7-(methoxymethyl)-5,16-dimethyl-2,6,9,12,15-pentaoxodocosahydrobenzo[l][1,4,7,11,14]pentaazacyclooctadecin-10-yl)-N,N-dimethylacetamide] | 97.18 | 1.3
COC[C@@H]1NC(=O)[C@H](C)N(Cc2ccc(Cl)cc2Oc2ccc(-n3cnc([C@@H](C)N(C)C)c3C)cc2)C(=O)C[C@@H](Cc2ccccc2)C(=O)N(C)[C@@H](C)[C@H](C)NC(=O)C[C@H](Cc2ccc(Cl)cc2)N(C)C1=O [Compound 270, (2S,5S,8S,12S,13S,16R)-16-benzyl-1-(4-chloro-2-(4-(4-((R)-1-(dimethylamino)ethyl)-5-methyl-1H-imidazol-1-yl)phenoxy)benzyl)-8-(4-chlorobenzyl)-5-(methoxymethyl)-2,7,12,13,14-pentamethyl-1,4,7,11,14-pentaazacyclooctadecane-3,6,10,15,18-pentaone] | 106.63 | 2.7
COC[C@@H]1NC(=O)[C@H](C)N(Cc2ccc(Cl)cc2Oc2ccc(-c3cnc(C4=CCOCC4)n3C)cc2)C(=O)C[C@@H](Cc2ccccc2)C(=O)N(C)[C@@H](C)CNC(=O)C[C@H](Cc2ccc(Cl)cc2)N(C)C1=O [Compound 271, (2S,5S,8S,13S,16R)-16-benzyl-1-(4-chloro-2-(4-(2-(3,6-dihydro-2H-pyran-4-yl)-1-methyl-1H-imidazol-5-yl)phenoxy)benzyl)-8-(4-chlorobenzyl)-5-(methoxymethyl)-2,7,13,14-tetramethyl-1,4,7,11,14-pentaazacyclooctadecane-3,6,10,15,18-pentaone] | 84.13 | 6.9
COC[C@@H]1NC(=O)[C@H](CCCN2CCOCC2)N(Cc2ccc(Cl)cc2Oc2ccc(-c3cnc(CN(C)C)n3C)cc2)C(=O)C[C@@H](Cc2ccccc2)C(=O)N(C)[C@H]2CCCC[C@@H]2NC(=O)C[C@H](Cc2ccc(Cl)cc2)N(C)C1=O [Compound 272, (4S,7S,10S,14R,16aS,20aS)-14-benzyl-11-(4-chloro-2-(4-(2-((dimethylamino)methyl)-1-methyl-1H-imidazol-5-yl)phenoxy)benzyl)-4-(4-chlorobenzyl)-7-(methoxymethyl)-5,16-dimethyl-10-(3-morpholinopropyl)hexadecahydrobenzo[l][1,4,7,11,14]pentaazacyclooctadecine-2,6,9,12,15(3H)-pentaone] | 98.30 | 1.2
COC[C@@H]1NC(=O)[C@H](C)N(Cc2ccc(Cl)cc2Oc2ccc(-c3cnc(CN(C)C)n3C)cn2)C(=O)C[C@@H](Cc2ccccc2)C(=O)N(C)[C@H]2CCCC[C@@H]2NC(=O)C[C@H](Cc2ccc(Cl)cc2)N(C)C1=O [Compound 273, (4S,7S,10S,14R,16aS,20aS)-14-benzyl-11-(4-chloro-2-((5-(2-((dimethylamino)methyl)-1-methyl-1H-imidazol-5-yl)pyridin-2-yl)oxy)benzyl)-4-(4-chlorobenzyl)-7-(methoxymethyl)-5,10,16-trimethylhexadecahydrobenzo[l][1,4,7,11,14]pentaazacyclooctadecine-2,6,9,12,15(3H)-pentaone] | 105.53 | 3
COC[C@@H]1NC(=O)[C@H](C)N(Cc2ccc(Cl)cc2Oc2ccc(-c3cnc(CN(C)C)n3C)cc2)C(=O)CC(Cn2ccccc2=O)C(=O)N(C)[C@H]2CCCC[C@@H]2NC(=O)C[C@H](Cc2ccc(Cl)cc2)N(C)C1=O (stereo partly drawn) [Compound 275, (4S,7S,10S,16aS,20aS)-11-(4-chloro-2-(4-(2-((dimethylamino)methyl)-1-methyl-1H-imidazol-5-yl)phenoxy)benzyl)-4-(4-chlorobenzyl)-7-(methoxymethyl)-5,10,16-trimethyl-14-((2-oxopyridin-1(2H)-yl)methyl)hexadecahydrobenzo[l][1,4,7,11,14]pentaazacyclooctadecine-2,6,9,12,15(3H)-pentaone] | 102.47 | 0.8
COC[C@@H]1NC(=O)[C@H](C)N(Cc2ccc(Cl)cc2Oc2ccc(-c3cnc(CN(C)C)n3C)cc2)C(=O)CC(Cn2ccccc2=O)C(=O)N(C)[C@H]2CCCC[C@@H]2NC(=O)C[C@H](Cc2ccc(Cl)cc2)N(C)C1=O (stereo partly drawn) [Compound 276, (4S,7S,10S,16aS,20aS)-11-(4-chloro-2-(4-(2-((dimethylamino)methyl)-1-methyl-1H-imidazol-5-yl)phenoxy)benzyl)-4-(4-chlorobenzyl)-7-(methoxymethyl)-5,10,16-trimethyl-14-((2-oxopyridin-1(2H)-yl)methyl)hexadecahydrobenzo[l][1,4,7,11,14]pentaazacyclooctadecine-2,6,9,12,15(3H)-pentaone] | 101.53 | 16.4
C=CC[C@@H]1CC(=O)N(Cc2ccc(Cl)cc2Oc2ccc(-c3cnc(CN(C)C)n3C)cc2)[C@@H](CCCN2CCOCC2)C(=O)N[C@@H](COC)C(=O)N(C)[C@@H](Cc2ccc(Cl)cc2)CC(=O)N[C@H]2CCCC[C@@H]2N(C)C1=O [Compound 277, (4S,7S,10S,14R,16aS,20aS)-14-allyl-11-(4-chloro-2-(4-(2-((dimethylamino)methyl)-1-methyl-1H-imidazol-5-yl)phenoxy)benzyl)-4-(4-chlorobenzyl)-7-(methoxymethyl)-5,16-dimethyl-10-(3-morpholinopropyl)hexadecahydrobenzo[l][1,4,7,11,14]pentaazacyclooctadecine-2,6,9,12,15(3H)-pentaone] | 83.22 | 2.5
